Data published in PMC7247818, “Demonstration of Binding Induced Structural Plasticity in a SH2 Domain” (Frontiers in Molecular Biosciences, 2020).
Where a SMILES comes first, the peptide text is derived from it.

What was measured:
Conditions in all cases: 10°C
[1] = molecular target: T1, N-SH2 domain of PI3K, WT (Homo sapiens, UniProt P27986); assay: Stopped-flow binding kinetics, N-SH2 WT
T1 construct: made in house
Description: (§1) N-SH2 wild-type and all the site-directed variants were expressed and purified as described previously ([Visconti et al., 2019]). All the mutants were obtained using a QuickChange Lightning Site-Directed Mutagenesis kit (Agilent technologies), accordingly to manufacturer instructions. Peptides with sequence TNSEDNpYVPMNPG mimicking wild-type Gab2 and TNSEDNpYVPANPG mimicking the M457A variant of Gab2 were purchased from GenScript Biotech Corporation.
(§2) Binding kinetics experiments were performed using a single-mixing SX-18 stopped-flow instrument (Applied Photophysics); all binding experiments were conducted in 50 mM Hepes pH 7.4 300 mM NaCl at 10°C. Excitation was at 280 nm and emission was collected using a […] cut-off glass filter. Pseudo-first order binding experiments were performed mixing a constant concentration of dansylated Gab2_448–460 and Gab2_448–460 M457A (1 μM) vs. N-SH2 wt and its mutants at concentrations ranging from […]. For each N-SH2 concentration, usually 5 individual traces were averaged and in all cases the fluorescence time courses obtained was satisfactorily fitted by using a single exponential equation.
(§3) One of the aims of this study is to depict the molecular details of the interaction between the N-SH2 domain of PI3K and Gab2. A powerful strategy to achieve this goal relies on perturbing the system by producing conservative site-directed variants while monitoring the effect of mutations on the association and dissociation rate constants between the interacting partners (kon and koff respectively). Thus, we designed and successfully produced 21 site-directed variants of the N-SH2 domain and challenged them vs. a peptide mimicking the region of Gab2 ranging from residue 448–460 (Gab2_448–460), containing the pY-X-X-M motif that is specifically recognized by the N-SH2 domain ([Waksman et al., 1992]; [Songyang et al., 1993]). The choise of mutations was designed in analogy to phi-value analysis methodology in protein folding studies ([Fersht and Sato, 2004]). […] To monitor binding by fluorescence, a dansyl group was added at the N-terminus of the peptide. The binding reaction was monitored by stopped-flow experiments following the change in FRET signal, taking advantage of the two Trp residues on the N-SH2 domain in positions 12 and 14 as fluorescence donor and the dansyl group on Gab2_448–460 as acceptor. The experiments were performed in pseudo-first order conditions with Gab2_448–460 at fixed concentration of 1 μM rapidly mixed vs. large excess of N-SH2 wt and its variants, ranging from 4 to 14 μM, in buffer Hepes 50 mM, NaCl 300 mM, pH 7.4, at 10°C.
(§4) with kon being the slope of the line and koff the intercept with the y-axis. Since indirect calculation of koff obtained by extrapolation is associated with high experimental error, we performed displacement experiments to directly measure koff by challenging a pre-incubated complex of dansylated Gab2_448–460 and N-SH2 domain both at the concentration of 1 μM vs. a large excess of non-dansylated Gab2_448–460 (50 μM). Kinetic parameters extracted from data together with the calculated changes in activation and equilibrium free energies are reported in Table 1. Analysis of kinetic data highlights that T48S, L51A, and L59A variations cause a detectable decrease of the affinity of the domain for Gab2_448–460 of ∼10-fold, affecting both the kon and koff. […] Since L99 residue is part of the binding pocket, this dramatic effect on the binding affinity is expected.
(§5) SH2 domains bind ligands with a phosphorylated tyrosine in their sequence. The N-SH2 domain of PI3K is known to recognize a specific consensus sequences that present a methionine in position +3 in respect to the phosphotyrosine (M457 in Gab2). […]

[2] = molecular target: T2, N-SH2 domain of PI3K, I17V variant (Homo sapiens, UniProt P27986, I338V); assay: Stopped-flow binding kinetics, N-SH2 I17V
T2 construct: made in house
T2 sequence (P27986 333-428 I338V): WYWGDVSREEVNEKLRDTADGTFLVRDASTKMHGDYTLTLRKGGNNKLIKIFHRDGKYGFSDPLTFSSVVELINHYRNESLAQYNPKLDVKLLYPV
Description: as §1, §2, §3, §4, §5

[3] = molecular target: T3, N-SH2 domain of PI3K, V22A variant (Homo sapiens, UniProt P27986, V343A); assay: Stopped-flow binding kinetics, N-SH2 V22A
T3 construct: made in house
T3 sequence (P27986 333-428 V343A): as the sequence (P27986 333-428 I338V) above, with V6I, V11A counted along it
Description: as §1, §2, §3, §4, §5

[4] = molecular target: T4, N-SH2 domain of PI3K, T29S variant (Homo sapiens, UniProt P27986, T350S); assay: Stopped-flow binding kinetics, N-SH2 T29S
T4 construct: made in house
T4 sequence (P27986 333-428 T350S): as the sequence (P27986 333-428 I338V) above, with V6I, T18S counted along it
Description: as §1, §2, §3, §4, §5

[5] = molecular target: T5, N-SH2 domain of PI3K, A30G variant (Homo sapiens, UniProt P27986, A351G); assay: Stopped-flow binding kinetics, N-SH2 A30G
T5 construct: made in house
T5 sequence (P27986 333-428 A351G): as the sequence (P27986 333-428 I338V) above, with V6I, A19G counted along it
Description: as §1, §2, §3, §4, §5

[6] = molecular target: T6, N-SH2 domain of PI3K, T33S variant (Homo sapiens, UniProt P27986, T354S); assay: Stopped-flow binding kinetics, N-SH2 T33S
T6 construct: made in house
T6 sequence (P27986 333-428 T354S): as the sequence (P27986 333-428 I338V) above, with V6I, T22S counted along it
Description: as §1, §2, §3, §4, §5

[7] = molecular target: T7, N-SH2 domain of PI3K, T50S variant (Homo sapiens, UniProt P27986, T371S); assay: Stopped-flow binding kinetics, N-SH2 T50S
T7 construct: made in house
T7 sequence (P27986 333-428 T371S): as the sequence (P27986 333-428 I338V) above, with V6I, T39S counted along it
Description: as §1, §2, §3, §4, §5

[8] = molecular target: T8, N-SH2 domain of PI3K, L51A variant (Homo sapiens, UniProt P27986, L372A); assay: Stopped-flow binding kinetics, N-SH2 L51A
T8 construct: made in house
T8 sequence (P27986 333-428 L372A): as the sequence (P27986 333-428 I338V) above, with V6I, L40A counted along it
Description: as §1, §2, §3, §4, §5

[9] = molecular target: T9, N-SH2 domain of PI3K, I60V variant (Homo sapiens, UniProt P27986, I381V); assay: Stopped-flow binding kinetics, N-SH2 I60V
T9 construct: made in house
T9 sequence (P27986 333-428 I381V): as the sequence (P27986 333-428 I338V) above, with V6I, I49V counted along it
Description: as §1, §2, §3, §4, §5

[10] = molecular target: T10, N-SH2 domain of PI3K, I62V variant (Homo sapiens, UniProt P27986, I383V); assay: Stopped-flow binding kinetics, N-SH2 I62V
T10 construct: made in house
T10 sequence (P27986 333-428 I383V): as the sequence (P27986 333-428 I338V) above, with V6I, I51V counted along it
Description: as §1, §2, §3, §4, §5

[11] = molecular target: T11, N-SH2 domain of PI3K, P74A variant (Homo sapiens, UniProt P27986, P395A); assay: Stopped-flow binding kinetics, N-SH2 P74A
T11 construct: made in house
T11 sequence (P27986 333-428 P395A): as the sequence (P27986 333-428 I338V) above, with V6I, P63A counted along it
Description: as §1, §2, §3, §4, §5

[12] = molecular target: T12, N-SH2 domain of PI3K, L75A variant (Homo sapiens, UniProt P27986, L396A); assay: Stopped-flow binding kinetics, N-SH2 L75A
T12 construct: made in house
T12 sequence (P27986 333-428 L396A): as the sequence (P27986 333-428 I338V) above, with V6I, L64A counted along it
Description: as §1, §2, §3, §4, §5

[13] = molecular target: T13, N-SH2 domain of PI3K, T76S variant (Homo sapiens, UniProt P27986, T397S); assay: Stopped-flow binding kinetics, N-SH2 T76S
T13 construct: made in house
T13 sequence (P27986 333-428 T397S): as the sequence (P27986 333-428 I338V) above, with V6I, T65S counted along it
Description: as §1, §2, §3, §4, §5

[14] = molecular target: T14, N-SH2 domain of PI3K, V80A variant (Homo sapiens, UniProt P27986, V401A); assay: Stopped-flow binding kinetics, N-SH2 V80A
T14 construct: made in house
T14 sequence (P27986 333-428 V401A): as the sequence (P27986 333-428 I338V) above, with V6I, V69A counted along it
Description: as §1, §2, §3, §4, §5

[15] = molecular target: T15, N-SH2 domain of PI3K, V81A variant (Homo sapiens, UniProt P27986, V402A); assay: Stopped-flow binding kinetics, N-SH2 V81A
T15 construct: made in house
T15 sequence (P27986 333-428 V402A): as the sequence (P27986 333-428 I338V) above, with V6I, V70A counted along it
Description: as §1, §2, §3, §4, §5

[16] = molecular target: T16, N-SH2 domain of PI3K, V101A variant (Homo sapiens, UniProt P27986, V422A); assay: Stopped-flow binding kinetics, N-SH2 V101A
T16 construct: made in house
T16 sequence (P27986 333-428 V422A): as the sequence (P27986 333-428 I338V) above, with V6I, V90A counted along it
Description: as §1, §2, §3, §4, §5

[17] = molecular target: T17, N-SH2 domain of PI3K, L104A variant (Homo sapiens, UniProt P27986, L425A); assay: Stopped-flow binding kinetics, N-SH2 L104A
T17 construct: made in house
T17 sequence (P27986 333-428 L425A): as the sequence (P27986 333-428 I338V) above, with V6I, L93A counted along it
Description: as §1, §2, §3, §4, §5

[18] = displacement experiment, pH 7.4, 300 mM NaCl
[19] = stopped-flow FRET, 1 μM dansylated peptide, 50 mM Hepes pH 7.4, 300 mM NaCl
[20] = stopped-flow kinetics, pH 7.4, 300 mM NaCl

T1 sequence (P27986 333-428 limits assumed): as the sequence (P27986 333-428 I338V) above, with V6I counted along it

CC(C)[C@H](NC(=O)[C@H](Cc1ccc(OP(=O)(O)O)cc1)NC(=O)[C@H](CC(N)=O)NC(=O)[C@H](CC(=O)O)NC(=O)[C@H](CCC(=O)O)NC(=O)[C@H](CO)NC(=O)[C@H](CC(N)=O)NC(=O)[C@@H](N)[C@@H](C)O)C(=O)N1CCC[C@H]1C(=O)N[C@@H](C)C(=O)N[C@@H](CC(N)=O)C(=O)N1CCC[C@H]1C(=O)NCC(=O)O [Gab2_448–460 M457A] (HELM PEPTIDE1{T.N.S.E.D.N.[O=C([C@H](Cc1ccc(OP(=O)(O)O)cc1)N[*:1])[*:2]].V.P.A.N.P.G}$$$$V2.0)
koff ([1]; displacement of 1 μM complex by 50 μM non-dansylated Gab2_448–460, 50 mM Hepes pH 7.4, 300 mM NaCl): 80 ± 4 s⁻¹
Kd ([1]; from stopped-flow kinetics, pH 7.4, 300 mM NaCl): 3.7 ± 0.4 µM
kon ([1]; stopped-flow FRET, 1 μM dansylated peptide vs excess N-SH2, 50 mM Hepes pH 7.4, 300 mM NaCl, slope of kobs): 2.15e+07 ± 2.4e+06 M⁻¹ s⁻¹
koff [2, 18]: 90 ± 5 s⁻¹
kon [2, 19]: 2.2e+07 ± 2.3e+06 M⁻¹ s⁻¹
Kd [2, 20]: 4.3 ± 0.5 µM
koff [3, 18]: 170 ± 9 s⁻¹
kon [3, 19]: 1.77e+07 ± 2.6e+06 M⁻¹ s⁻¹
Kd [3, 20]: 9.7 ± 1.5 µM
koff [4, 18]: 80 ± 4 s⁻¹
kon [4, 19]: 1.97e+07 ± 2.7e+06 M⁻¹ s⁻¹
Kd [4, 20]: 4 ± 0.6 µM
koff [5, 18]: 90 ± 4 s⁻¹
kon [5, 19]: 1.71e+07 ± 2.2e+06 M⁻¹ s⁻¹
Kd [5, 20]: 5.1 ± 0.7 µM
koff [6, 18]: 80 ± 4 s⁻¹
kon [6, 19]: 2.06e+07 ± 2.9e+06 M⁻¹ s⁻¹
Kd [6, 20]: 3.8 ± 0.6 µM
koff [7, 18]: 140 ± 7 s⁻¹
kon [7, 19]: 2.02e+07 ± 2e+06 M⁻¹ s⁻¹
Kd [7, 20]: 6.8 ± 0.8 µM
koff [8, 18]: 160 ± 8 s⁻¹
kon [8, 19]: 2.12e+07 ± 3.3e+06 M⁻¹ s⁻¹
Kd [8, 20]: 7.6 ± 1.2 µM
koff [9, 18]: 80 ± 4 s⁻¹
kon [9, 19]: 1.52e+07 ± 1.5e+06 M⁻¹ s⁻¹
Kd [9, 20]: 5 ± 0.6 µM
koff [10, 18]: 120 ± 6 s⁻¹
kon [10, 19]: 1.84e+07 ± 1.5e+06 M⁻¹ s⁻¹
Kd [10, 20]: 6.7 ± 0.6 µM
koff [11, 18]: 60 ± 3 s⁻¹
kon [11, 19]: 2.25e+07 ± 1.9e+06 M⁻¹ s⁻¹
Kd [11, 20]: 2.6 ± 0.3 µM
koff [12, 18]: 110 ± 5 s⁻¹
kon [12, 19]: 1.88e+07 ± 3.2e+06 M⁻¹ s⁻¹
Kd [12, 20]: 5.7 ± 1 µM
koff [13, 18]: 100 ± 5 s⁻¹
kon [13, 19]: 1.96e+07 ± 2.6e+06 M⁻¹ s⁻¹
Kd [13, 20]: 5 ± 0.7 µM
koff [14, 18]: 130 ± 6 s⁻¹
kon [14, 19]: 2.23e+07 ± 5.4e+06 M⁻¹ s⁻¹
Kd [14, 20]: 5.6 ± 1.4 µM
koff [15, 18]: 90 ± 5 s⁻¹
kon [15, 19]: 2.05e+07 ± 3.8e+06 M⁻¹ s⁻¹
Kd [15, 20]: 4.5 ± 0.9 µM
koff [16, 18]: 170 ± 9 s⁻¹
kon [16, 19]: 1.42e+07 ± 1.7e+06 M⁻¹ s⁻¹
Kd [16, 20]: 12 ± 1 µM
koff [17, 18]: 110 ± 6 s⁻¹
kon [17, 19]: 2.21e+07 ± 1.4e+06 M⁻¹ s⁻¹
Kd [17, 20]: 5.2 ± 0.4 µM
